Data on 40 compounds can be found in US8802700B2 (Vertex Pharmaceuticals Incorporated, priority 2010, dated 2014).

T1 sequence (P13569 with tags, fused parts or gaps DEL508-508): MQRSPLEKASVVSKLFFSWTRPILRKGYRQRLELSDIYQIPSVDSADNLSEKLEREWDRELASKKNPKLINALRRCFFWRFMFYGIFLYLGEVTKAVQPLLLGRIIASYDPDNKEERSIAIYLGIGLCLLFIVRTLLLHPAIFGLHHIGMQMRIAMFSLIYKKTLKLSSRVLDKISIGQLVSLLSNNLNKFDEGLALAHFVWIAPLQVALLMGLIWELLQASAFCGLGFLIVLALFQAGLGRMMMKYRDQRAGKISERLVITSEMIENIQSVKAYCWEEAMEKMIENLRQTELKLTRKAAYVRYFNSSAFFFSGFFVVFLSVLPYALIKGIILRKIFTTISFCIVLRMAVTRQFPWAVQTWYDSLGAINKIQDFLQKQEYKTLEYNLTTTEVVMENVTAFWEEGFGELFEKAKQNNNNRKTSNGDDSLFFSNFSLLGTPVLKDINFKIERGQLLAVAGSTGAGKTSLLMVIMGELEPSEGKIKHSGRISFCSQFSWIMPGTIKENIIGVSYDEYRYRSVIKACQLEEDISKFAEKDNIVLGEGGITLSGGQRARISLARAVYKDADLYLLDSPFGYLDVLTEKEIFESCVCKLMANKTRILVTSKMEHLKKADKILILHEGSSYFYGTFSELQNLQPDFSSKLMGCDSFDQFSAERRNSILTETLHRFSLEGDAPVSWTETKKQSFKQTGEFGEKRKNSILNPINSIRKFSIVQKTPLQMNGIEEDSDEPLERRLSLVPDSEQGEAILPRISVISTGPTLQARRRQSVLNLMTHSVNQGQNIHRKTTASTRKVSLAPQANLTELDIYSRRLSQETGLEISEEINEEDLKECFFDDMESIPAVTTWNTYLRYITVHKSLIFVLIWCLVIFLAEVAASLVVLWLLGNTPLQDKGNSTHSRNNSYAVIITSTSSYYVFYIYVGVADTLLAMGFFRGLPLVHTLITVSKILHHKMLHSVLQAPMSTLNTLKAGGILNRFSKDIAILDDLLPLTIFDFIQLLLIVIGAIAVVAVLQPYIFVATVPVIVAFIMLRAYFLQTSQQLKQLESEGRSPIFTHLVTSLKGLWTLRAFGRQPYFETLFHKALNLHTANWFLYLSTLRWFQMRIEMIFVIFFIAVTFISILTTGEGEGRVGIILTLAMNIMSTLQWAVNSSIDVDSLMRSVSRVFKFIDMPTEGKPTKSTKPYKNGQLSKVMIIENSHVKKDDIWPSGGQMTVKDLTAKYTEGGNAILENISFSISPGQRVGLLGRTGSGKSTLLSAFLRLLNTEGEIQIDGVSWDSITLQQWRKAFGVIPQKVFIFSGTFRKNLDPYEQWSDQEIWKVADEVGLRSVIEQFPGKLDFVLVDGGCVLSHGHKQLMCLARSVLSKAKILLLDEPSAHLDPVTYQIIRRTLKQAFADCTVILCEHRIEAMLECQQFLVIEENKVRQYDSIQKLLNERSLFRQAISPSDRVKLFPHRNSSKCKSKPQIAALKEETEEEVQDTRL

One experiment addresses T1, ΔF508-CFTR (Homo sapiens, UniProt P13569, DEL508-508).
T1 construct: expressed in transfected cells
In words: Membrane potential optical assay (FRET voltage-sensor dyes, VIPR), identification of potentiator compounds. It counts as cell-based. Particulars: Table 3; assay not given. The procedure, abridged:
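Potentiator screen measured membrane potential via FRET between CC2-DMPE donor and DiSBAC2(3), read on VIPR II. Compound went in with the first addition of chloride-free gluconate bath; cells were ΔF508-CFTR-expressing NIH3T3 mouse fibroblasts, temperature-corrected at 27 °C for 24 h.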
For the compound `CC(C)(C)c1c[nH]c2cc(NC(=O)c3c[nH]c4ccccc4c3=O)c(C(F)(F)F)cc12` [Compound 508, 4-oxo-N-[3-tert-butyl-5-(trifluoromethyl)-1H-indol-6-yl]-1H-quinoline-3-carboxamide], the EC50 was less than 10 µM.

Regarding `O=C(Nc1cc(O)c2ccccc2c1)c1c[nH]c2ccccc2c1=O` [Compound 551, N-(4-hydroxy-2-naphthyl)-4-oxo-1H-quinoline-3-carboxamide], the EC50 is less than 10 µM.

Consider `CCCc1ccc(NC(=O)c2c[nH]c3ccccc3c2=O)cc1N(C)C` [Compound 462, N-(3-dimethylamino-4-propyl-phenyl)-4-oxo-1H-quinoline-3-carboxamide], for which the 50% effective concentration (EC50) was less than 10 µM.

`CCCc1ccc(N)cc1NC(=O)c1c[nH]c2ccccc2c1=O` [Compound 41, N-(5-amino-2-propyl-phenyl)-4-oxo-1H-quinoline-3-carboxamide]: the 50% effective concentration (EC50) is less than 10 µM.

As for `CCOC(=O)c1cc(NC(=O)c2c[nH]c3ccccc3c2=O)cc2[nH]ccc12` [Compound 145, 6-[(4-oxo-1H-quinolin-3-yl)carbonylamino]-1H-indole-4-carboxylic acid ethyl ester], the EC50 is less than 10 µM.

On to `CC(C)(C)c1cc(Cl)c(NC(=O)c2c[nH]c3ccccc3c2=O)cc1O` [Compound 291, N-(2-chloro-5-hydroxy-4-tert-butyl-phenyl)-4-oxo-1H-quinoline-3-carboxamide], for which the EC50 is less than 10 µM.

Still in this experiment, the particulars now being: Table 3; assay not given; read-out: % Activity (% Efficacy, relative efficacy).
Take `CC(C)(C)c1c[nH]c2cc(NC(=O)c3c[nH]c4ccccc4c3=O)c(C(F)(F)F)cc12` [Compound 508, 4-oxo-N-[3-tert-butyl-5-(trifluoromethyl)-1H-indol-6-yl]-1H-quinoline-3-carboxamide]: the Emax was in the range of 25 to 100%.

On to `Cc1ccc(NC(=O)c2c[nH]c3ccccc3c2=O)c(C)c1` [Compound 281, N-(2,4-dimethylphenyl)-4-oxo-1H-quinoline-3-carboxamide], for which the Emax was in the range of 25 to 100%.

On to `CC1(c2ccc(NC(=O)c3c[nH]c4ccc(F)cc4c3=O)cc2)COC1` [Compound 521, 6-fluoro-N-[4-(3-methyloxetan-3-yl)phenyl]-4-oxo-1H-quinoline-3-carboxamide], for which the Emax lay in the range of 25 to 100%.

In the case of `Cc1nc2cc(NC(=O)c3c[nH]c4ccccc4c3=O)ccc2s1` [Compound 44, N-(2-methylbenzothiazol-5-yl)-4-oxo-1H-quinoline-3-carboxamide], the Emax is 25 to 100%.

For `CC(C)(C)c1cc2cc[nH]c2cc1NC(=O)c1c[nH]c2cccc(F)c2c1=O` [Compound 656, 5-fluoro-4-oxo-N-(5-tert-butyl-1H-indol-6-yl)-1H-quinoline-3-carboxamide], the Emax lay in the range of 25 to 100%.

Take `CC(=O)Nc1cc(NC(=O)c2c[nH]c3ccccc3c2=O)cc(C(F)(F)F)c1` [Compound 379, N-[3-acetylamino-5-(trifluoromethyl)phenyl]-4-oxo-1H-quinoline-3-carboxamide]: the Emax fell in the range of 25 to 100%.

For `O=C1CSc2ccc(NC(=O)c3c[nH]c4ccccc4c3=O)cc2N1` [Compound 262, 1,4-dihydro-N-(3,4-dihydro-3-oxo-2H-benzo[b][1,4]thiazin-6-yl)-4-oxoquinoline-3-carboxamide], the Emax fell in the range of 25 to 100%.

Regarding `CC(C)c1ccccc1NC(=O)c1c[nH]c2ccccc2c1=O` [Compound 36, N-(2-isopropylphenyl)-4-oxo-1H-quinoline-3-carboxamide], the Emax fell in the range of 25 to 100%.

For the compound `CC1(c2cc(F)c(NC(=O)c3c[nH]c4cccc(C(F)(F)F)c4c3=O)cc2O)CCCCC1` [Compound 706, N-[2-fluoro-5-hydroxy-4-(1-methylcyclohexyl)-phenyl]-4-oxo-5-(trifluoromethyl)-1H-quinoline-3-carboxamide], the Emax is more than 100%.

With `CC(C)(C)c1cc(C(F)(F)F)c(NC(=O)c2c[nH]c3ccccc3c2=O)cc1O` [Compound 266, N-[5-hydroxy-4-tert-butyl-2-(trifluoromethyl)phenyl]-4-oxo-1H-quinoline-3-carboxamide], the Emax was 25 to 100%.

Consider `O=C(Nc1ccc(N2CC[C@H](O)C2)cc1C(F)(F)F)c1c[nH]c2ccccc2c1=O` [Compound 655, (S)-N-(4-(3-hydroxypyrrolidin-1-yl)-2-(trifluoromethyl)phenyl)-4-oxo-1,4-dihydroquinoline-3-carboxamide], for which the Emax lay in the range of 25 to 100%.

In the case of `COc1cccc(OC)c1-c1ccccc1NC(=O)c1c[nH]c2ccccc2c1=O` [Compound 49, N-[2-(2,6-dimethoxyphenyl)phenyl]-4-oxo-1H-quinoline-3-carboxamide], the Emax lay in the range of 25 to 100%.

Regarding `CC(C)(C)c1cc(F)c(NC(=O)c2c[nH]c3c(C#N)cccc3c2=O)cc1O` [Compound 519, 8-cyano-N-(2-fluoro-5-hydroxy-4-tert-butyl-phenyl)-4-oxo-1H-quinoline-3-carboxamide], the Emax lay in the range of 25 to 100%.

On to `CC(=O)Nc1cccc(NC(=O)c2c[nH]c3ccccc3c2=O)c1` [Compound 419, N-(3-acetylaminophenyl)-4-oxo-1H-quinoline-3-carboxamide], for which the Emax is less than 25%.

As for `O=C(Nc1cccc(-c2cccs2)c1)c1c[nH]c2ccccc2c1=O` [Compound 549, 4-oxo-N-[3-(2-thienyl)phenyl]-1H-quinoline-3-carboxamide], the Emax fell in the range of 25 to 100%.

In the case of `CC(C)(C)c1cc(C(C)(C)C)c(NC(=O)c2c[nH]c3ccc(O)cc3c2=O)cc1O` [Compound 702, 6-hydroxy-N-(5-hydroxy-2,4-ditert-butyl-phenyl)-4-oxo-1H-quinoline-3-carboxamide], the Emax was 25 to 100%.

Regarding `O=C(Nc1cc(O)c2ccccc2c1)c1c[nH]c2ccccc2c1=O` [Compound 551, N-(4-hydroxy-2-naphthyl)-4-oxo-1H-quinoline-3-carboxamide], the Emax was in the range of 25 to 100%.

For the compound `CC(C)n1cc(C(=O)Nc2ccccc2)c(=O)c2ccccc21` [Compound 29, 1-isopropyl-4-oxo-N-phenyl-1H-quinoline-3-carboxamide], the Emax was 25 to 100%.

Take `O=C(Nc1ccccc1-c1csc2ccccc12)c1c[nH]c2ccccc2c1=O` [Compound 417, N-(2-(benzo[b]thiophen-3-yl)phenyl)-1,4-dihydro-4-oxoquinoline-3-carboxamide]: the Emax was in the range of 25 to 100%.

Turning to `COc1cccc(-c2ccccc2NC(=O)c2c[nH]c3ccccc3c2=O)c1` [Compound 283, N-[2-(3-methoxyphenyl)phenyl]-4-oxo-1H-quinoline-3-carboxamide], the Emax was more than 100%.

For the compound `O=C(Nc1csc(C(F)(F)F)c1-c1ccccc1)c1c[nH]c2ccccc2c1=O` [Compound 708, 4-oxo-N-[4-phenyl-5-(trifluoromethyl)-3-thienyl]-1H-quinoline-3-carboxamide], the Emax is 25 to 100%.

`O=C(Nc1cc2[nH]ccc2cc1F)c1c[nH]c2cccc(O)c2c1=O` [Compound 596, N-(5-fluoro-1H-indol-6-yl)-5-hydroxy-4-oxo-1H-quinoline-3-carboxamide]: the Emax was in the range of 25 to 100%.

Turning to `O=C(Nc1ccc2c(C3CCCC3)c[nH]c2c1)c1c[nH]c2ccccc2c1=O` [Compound 186, N-(3-cyclopentyl-1H-indol-6-yl)-4-oxo-1H-quinoline-3-carboxamide], the Emax was in the range of 25 to 100%.

As to `NS(=O)(=O)c1ccccc1NC(=O)c1c[nH]c2ccccc2c1=O` [Compound 78, 4-oxo-N-(2-sulfamoylphenyl)-1H-quinoline-3-carboxamide], the Emax was less than 25%.

As to `CC(C)(C)c1ccc(O)cc1NC(=O)c1c[nH]c2ccc(F)cc2c1=O` [Compound 665, 6-fluoro-N-(5-hydroxy-2-tert-butyl-phenyl)-4-oxo-1H-quinoline-3-carboxamide], the Emax is 25 to 100%.

As to `CC(C)c1cccc(C(C)C)c1NC(=O)c1c[nH]c2ccccc2c1=O` [Compound 466, N-(2,6-diisopropylphenyl)-4-oxo-1H-quinoline-3-carboxamide], the Emax fell in the range of 25 to 100%.

Regarding `Nc1cc(NC(=O)c2c[nH]c3ccccc3c2=O)cc(C(F)(F)F)c1` [Compound 429, N-[3-amino-5-(trifluoromethyl)phenyl]-4-oxo-1H-quinoline-3-carboxamide], the Emax lay within 25 to 100%.

As to `CCOc1ccccc1-c1cc(C(C)(C)C)c(O)cc1NC(=O)c1c[nH]c2ccccc2c1=O` [Compound 23, N-[2-(2-ethoxyphenyl)-5-hydroxy-4-tert-butyl-phenyl]-4-oxo-1H-quinoline-3-carboxamide], the Emax was 25 to 100%.

With `COc1cc(NC(=O)c2c[nH]c3ccccc3c2=O)ccc1-n1c(C)ccc1C` [Compound 560, N-[4-(2,5-dimethylpyrrol-1-yl)-3-methoxy-phenyl]-4-oxo-1H-quinoline-3-carboxamide], the Emax fell in the range of 25 to 100%.

Turning to `O=C(Nc1ccccc1-c1ccccc1)c1c[nH]c2cc(C(F)(F)F)ccc2c1=O` [Compound 469, 4-oxo-N-(2-phenylphenyl)-7-(trifluoromethyl)-1H-quinoline-3-carboxamide], the Emax fell in the range of 25 to 100%.

For `COc1cccc(-c2ccccc2NC(=O)c2c[nH]c3ccccc3c2=O)c1F` [Compound 363, N-[2-(2-fluoro-3-methoxy-phenyl)phenyl]-4-oxo-1H-quinoline-3-carboxamide], the Emax was more than 100%.

Take `CCCc1ccc(NC(=O)c2c[nH]c3ccccc3c2=O)cc1N(C)C` [Compound 462, N-(3-dimethylamino-4-propyl-phenyl)-4-oxo-1H-quinoline-3-carboxamide]: the Emax lay within 25 to 100%.

For the compound `CCCc1ccc(N)cc1NC(=O)c1c[nH]c2ccccc2c1=O` [Compound 41, N-(5-amino-2-propyl-phenyl)-4-oxo-1H-quinoline-3-carboxamide], the Emax fell in the range of 25 to 100%.

With `CCOC(=O)c1cc(NC(=O)c2c[nH]c3ccccc3c2=O)cc2[nH]ccc12` [Compound 145, 6-[(4-oxo-1H-quinolin-3-yl)carbonylamino]-1H-indole-4-carboxylic acid ethyl ester], the Emax fell in the range of 25 to 100%.

Turning to `CC(C)n1cc(C(=O)Nc2ccccc2C(C)(C)C)c(=O)c2ccccc21` [Compound 473, 1-isopropyl-4-oxo-N-(2-tert-butylphenyl)-1H-quinoline-3-carboxamide], the Emax fell in the range of 25 to 100%.

For `O=C(Nc1ccc2cc[nH]c2c1)c1cnc2c(F)cc(F)cc2c1O` [Compound 377, 6,8-difluoro-4-hydroxy-N-(1H-indol-6-yl)quinoline-3-carboxamide], the Emax is 25 to 100%.

With `Cc1cccc2[nH]cc(C(=O)Nc3ccc(OC(C)C)c(O)c3)c(=O)c12` [Compound 701, N-(3-hydroxy-4-isopropoxy-phenyl)-5-methyl-4-oxo-1H-quinoline-3-carboxamide], the Emax was in the range of 25 to 100%.

Take `NS(=O)(=O)c1ccc(NC(=O)c2c[nH]c3ccccc3c2=O)cc1` [Compound 165, 4-oxo-N-(4-sulfamoylphenyl)-1H-quinoline-3-carboxamide]: the Emax was less than 25%.

Take `CC(C)(C)c1cc(C(C)(C)C)c(NC(=O)c2c[nH]c3cccc(N)c3c2=O)cc1O` [Compound 585, 5-amino-N-(5-hydroxy-2,4-ditert-butyl-phenyl)-4-oxo-1H-quinoline-3-carboxamide]: the Emax was more than 100%.

For `CC(C)(C)c1cc(Cl)c(NC(=O)c2c[nH]c3ccccc3c2=O)cc1O` [Compound 291, N-(2-chloro-5-hydroxy-4-tert-butyl-phenyl)-4-oxo-1H-quinoline-3-carboxamide], the Emax was 25 to 100%.
